This is an account of results in US20160223554A1, “METHODS FOR DIAGNOSIS, PROGNOSIS AND METHODS OF TREATMENT” (priority 2011, published 2016).

One data set has as its system AML leukemic cells. In words: Apotosis/Cytostasis Arm with kinase inhibitors (Example 13). Type of data set: cell-based, human. Particulars: two samples with greatest SCF and G-CSF signaling response; 1 μM; 48-hr incubation. An excerpt:
All results were compared with results from bone marrow samples from healthy donors (N=6).

For data set [1] the following is noted: cited from earlier work.
A further data set relates to AML blasts. The experiment in a line: SCNP functional apoptosis and DNA damage response assay in AML PBMC (Examples 2, 6, 8, 10). The data set is classed as cell-based, human. Particulars: with staurosporine or etoposide. The procedure:
A viable cell will be Aqua negative and PARP negative and a measure of cell death is PARP and/or Aqua positivity.
“Apoptosis”=% of PARP^−Aqua^−unstim−% of PARP^−Aqua^−Drug.
Functional assays were performed as previously described. See Irish, et al., Cell 2004; 118:217-228.
The median fluorescence intensity (MFI) was computed for each node from the fluorescence intensity levels for the cells in the myeloid population. The MFI values were then used to compute a variety of metrics by comparing them to baseline or background values, including the unmodulated condition, cellular autofluorescence and antibody isotype controls. The following metrics were computed: • 1. Basal MFI (“Basal”)=log2(MFIUnmodulated Stained)−log2(MFIGated Unstained (Autofluoresence)), designed to measure the basal levels of a certain protein under unmodulated conditions. • 2. Fold Change MFI (“Fold”)=log2(MFIModulated Stained)−log2(MFIUnmodulated Stained), a measure of the change in the activation state of a protein under modulated conditions. • 3. Total Phospho MFI (“TotalPhospho”)=log2(MFIModulated Stained)−log2(MFIGated Unstained (Autofluorescence)), a measure of the total levels of a protein under modulated conditions. • 4. Relative Protein Expression (“Rel. Expression”)=log2(MFIstain)−log2(MFIControl), a measure of the levels of surface marker staining relative to control antibody staining • 5. […]

SMILES strings stand for the structures. Like-named read-outs stand apart in the source and are kept apart here. Residues, ends and D or L forms follow the SMILES beside them. *: point of attachment. Cbz = O=C(OCc1ccccc1)*; CH2F = FC*

For the compound `C[C@@H]1CCN(C(=O)CC#N)C[C@@H]1N(C)c1ncnc2[nH]ccc12` [CP-690,550], the “sensitivity to kinase inhibitor, cytostasis readouts” value with AML leukemic cells is reported as “most sensitive”. Consider `Nc1ccn([C@@H]2O[C@H](CO)[C@@H](O)[C@@H]2O)c(=O)n1` [Cytarabine, 1β-arabinofuranosylcytosine], for which the peak plasma concentration in data set [1] (high dose Cytarabine, 3 g/m2) is 2 µM; in data set [1] (standard dose of Cytarabine, 100 mg/m2), “approximately 40 nM”. Turning to `COc1cccc2c1C(=O)c1c(O)c3c(c(O)c1C2=O)C[C@@](O)(C(C)=O)C[C@@H]3O[C@H]1C[C@H](N)[C@H](O)[C@H](C)O1` [Daunorubicin], the results for the peak plasma concentration in data set [1] (Daunorubicin at 25 mg/m2) and in data set [1] (Daunorubicin at 50 mg/m2) were 50 ng/mL and 200 ng/mL, respectively. As for `COC(=O)CC(NC(=O)C(C)NC(=O)C(NC(=O)OCc1ccccc1)C(C)C)C(=O)CF` (stereo not drawn) [Z-VAD, Benzyloxycarbonyl-Val-Ala-Asp (OMe) fluoromethylketone] (Cbz-Val-Ala-Asp(OMe)-CH2F; configuration not given here), the “effect of co-incubation with pan-Caspase inhibitor on Cleaved Caspase-3 and PARP” value in the data set on AML blasts (samples 0341, 0521) was “inhibited cleavage of caspase 3 and PARP to near completion”. For the same compound, in the data set with AML blasts (samples 8303, 8402), the “effect of co-incubation with pan-Caspase inhibitor on PARP cleavage” value is “only partially inhibited”.
